In brackets after ≈: the same amount, converted by molar mass.
What was measured:
[1] = Stability of test solutions stored at room temperature (retention of cooling activity); type: physicochemical; details: saline solution
From the text: (§1) 2-[((1R,2S,5R)-2-isopropyl-5-methyl-cyclohexanecarbonyl)-amino]-acetic acid 3-hydroxypropyl ester, referred to as CPS-160 (see, e.g., Wei, 2008) was synthesized and tested. […] Thus, CPS-160 was not considered to be an optimal cooling agent for practicing the invention.
(§2) It has a good safety profile because the expected hydrolysis products are the carboxylic acid and glycerol.

[2] = Observed solubility in vehicle; type: physicochemical; details: for solubility in 1 or 2% ethanol-water solution: higher concentrations not achievable without more ethanol
From the text: Wei, 2008 describes delivery of cooling compounds to the skin using a towelette. The wiping of the towelette across skin results in delivery of dermatologically active ingredient(s), meaning that the skin is substantially medicated. […] An ethanol/water mixture with an ethanol concentration of about 5 wt % is required in order to dissolve enough of these compounds to provide a sufficient degree of cooling to relieve eye discomfort; however, at this concentration the ethanol is irritating to the eye surface.
as §1, §2
Thus, water solubility, as embodied in CPS-030, is a key factor for an ideal API.

closed eyelids [3] = test: Eye wipe test: cooling sensations after wiping test solution over closed eyelids; type: in vivo, human; details: for quality of cooling sensation: CPS-369 1 and 2 mg/mL, CPS-160 2 mg/mL, CPS-030 1, 2, 4, 8 mg/mL; for cooling potency relative to CPS-030: in vivo
Description: The general procedure for testing was to weigh an active ingredient and to disperse it within a saline solution (i.e., Bausch & Lomb, Sensitive Eyes Plus Saline Solution) at stock concentrations of 10 to 20 mg/mL. Test solutions were further diluted with isotonic saline. For single assays, a 1 mL scaled pipette was used to dispense 0.8 to 1 mL of test solution onto a sterile 2″×2″ (5 cm×5 cm) pad, made of rayon-polyester formed fabric (Walgreens Sterile Gauze Pads) weighing on average 285±9 mg.
In the next trials, the wet pad was wiped twice over the closed eyelids of each eye from the medial to the lateral canthus. By subtraction, the loss of weight of the pad averaged 32±1 mg. Thus, each eye received ˜16 μL of the test solution per eye. For a 1 mg/mL solution this was equivalent to ˜16 μg per eye.
The presence of cooling sensations was recorded at 2 and 5 minutes after wiping and at 5 minute intervals thereafter. The intensity of the subjective eye sensation was rated as 0, 1, 2 or 3 with: 0 as no change; 1 as slight coolness or cold; 2 as clear-cut signal of coolness or cold; and 3 as comfortable and soothing sensations of cooling or cold. Recording was continued until two successive zeroes were obtained. The data were plotted using SigmaPlot™ (Systat Software, Point Richmond Calif.).
The results for compound CPS-030 are illustrated in FIG. 1, and reflect the averaged values of 6 to 8 separate trials in the same individual.
FIG. 1 is a graph of cooling intensity versus hours after application of CPS-030 with eye wipes for four dosages (128 μg, 64 μg, 32 μg, and 16 μg; per eye), and illustrates the dose-response data for CPS-030 on cooling sensations after application with eye wipes. The dose reported in μg is per eye, based on solutions of 1.0, 2.0, 4.0 and 8.0 mg of CPS-030 per mL of saline, applied in a volume of 16 μL per eye. […] Confirmatory trials of cooling action for CPS-030 were obtained in 4 individuals.

closed eyelids [4] = test: as above; type: in vivo, human; details: for sensations accompanying cooling: 1 mg/mL in 1 or 2% ethanol-water, closed eyelids
closed eyelids [5] = test: Case reports: eye wipe in subjects with eye strain or dry eyes syndrome; type: in vivo, human; details: person
Description: A person routinely spent about 12 hour each day in front of a computer monitor and developed headaches and blurred vision. A visit to a general physician gave a diagnosis of eye strain, but the addiction to the computer monitor continued. The subject found some relief by putting a cold wet towel on their face, but the relief was only temporary. They volunteered to test an eye wipe containing 0.8 mL of a 4 mg/mL solution of CPS-030 and was given instructions on how to wipe the solution onto the eyelids with the eyes closed. […] During this time, the subject watched a basketball playoff game on television and noted that they could clearly distinguish scores on the 46 inch (117 cm) HDTV monitor which were previously indecipherable. For example, they could clearly see scores of 65 vs. 66, and of 98 vs. 99. […] The subject continues to use the eye wipes as an aid to their vision on an “as needed basis”, and the improved visual acuity is a reproducible event.
Their principal complaints were of dryness, itch, and discomfort at the corner of their eyes and blurred vision. These symptoms were present on a daily basis at various levels of intensity. […] It was not clear if they adhered to a strict regimen of self-administration, but they complained of the eye drops running down their cheeks and the expense of the medications. When the symptoms were severe, the subject found some relief by wetting their eyes with cold tap water, but the relief was only temporary. They volunteered to test an eye wipe containing 0.8 mL of a 4 mg/mL solution of CPS-030, and was given instructions on how to apply the solution onto the eyelids with the eyes shut.

[6] = dry eyes syndrome, eye wipe 0.8 mL of 4 mg/mL
[7] = eye strain, eye wipe 0.8 mL of 4 mg/mL

**Q.** What does the source list for `CC(C)[C@@H]1CC[C@@H](C)C[C@H]1C(=O)NCC(=O)OCCCO` [CPS-160, 2-[((1R,2S,5R)-2-isopropyl-5-methyl-cyclohexanecarbonyl)-amino]-acetic acid 3-hydroxypropyl ester]?
**A.** stability of solution stored at room temperature [1]: not stable and became inactive after 2 days; solubility in saline solution [2]: solubilized in saline solution; duration of cooling (closed eyelids [3]; 2 mg/mL in saline, eye wipe): approximately 0.6 hours; quality of cooling sensation (closed eyelids [3]; saline, eye wipe): Robust and refreshing cooling

**Q.** With `CCOC(=O)[C@@H](C)NC(=O)[C@@H]1C[C@H](C)CC[C@H]1C(C)C` [Compound 12, (R)-2-[((1R,2S,5R)-2-isopropyl-5-methyl-cyclohexanecarbonyl)-amino]-propionic acid ethyl ester] as the molecule, how does the cooling sensation (closed eyelids [4]; 30 mg in 0.1 mL ethanol + 7.4 mL glycerol + 7.5 mL water) read?
**A.** Mild and persistent cooling

**Q.** And the duration of cooling (closed eyelids [3]; 1 mg/mL dispersed in saline, eye wipe)?
**A.** approximately 1.5 hours

**Q.** And the duration of cooling (closed eyelids [3]; 2 mg/mL in saline, eye wipe)?
**A.** ~2.5 h

**Q.** What about the “quality of cooling sensation” value (closed eyelids [3]; saline, eye wipe) of the same molecule?
**A.** Robust and refreshing cooling

**Q.** What about the “side-effect when eyelids get wet after testing” value (closed eyelids [3]; solid dispersed in saline, 1 and 2 mg/mL) of the same molecule?
**A.** the cooling sensations returned, sometimes with an intensity that could cause discomfort

**Q.** Which adverse sensations (closed eyelids [3]; higher two doses of 32 to 160 μg/eye range) does the source give for `CC(C)[C@@H]1CC[C@@H](C)C[C@H]1C(=O)OCCO` [Compound 3] here?
**A.** brief period of warmth sensations on the eye surface and increased lachrymation

**Q.** And the “cooling potency relative to CPS-030” value (closed eyelids [3])?
**A.** about half the potency of CPS-030

**Q.** For `COC(=O)CNC(=O)[C@@H]1C[C@H](C)CC[C@H]1C(C)C` [Compound 10, reference compound], which sensations accompanying cooling (closed eyelids [4]) is on record?
**A.** without any sensations of wetness or increased visual acuity

**Q.** And the “solubility in 1 or 2% ethanol-water solution” value [2]?
**A.** 1000 µg/mL (≈ 3.92 mM)

**Q.** What about the “cooling potency relative to CPS-030” value (closed eyelids [3]) of the same molecule?
**A.** more potent cooling activity than CPS-030

**Q.** With `CC(C)[C@@H]1CC[C@@H](C)C[C@H]1C(=O)OCC(O)CO` (stereo partly drawn) [Compound 1, (1R,2S,5R)-2-isopropyl-5-methyl-cyclohexanecarboxylic acid 2,3-dihydroxy-propyl ester] as the molecule, how does the “stability of solution stored at room temperature” value [1] read?
**A.** retained biological potency when stored at room temperature for at least three weeks

**Q.** And the “solubility in saline solution” value [2]?
**A.** miscible and solubilized in saline solution

**Q.** What about the sensations accompanying cooling (closed eyelids [3]; 32 μg, 64 μg and 128 μg per eye, saline, eye wipe) of the same molecule?
**A.** cooling was accompanied by a sensation of “wetness” and increased visual acuity

**Q.** And the “duration of eye refreshment” value (closed eyelids [3]; 4.0 mg/mL in saline, 16 μL per eye, sterile pad)?
**A.** approximately 1 hour

**Q.** And the “sensations of sting, irritation or pain” value (closed eyelids [3]; all dosages tested (16-128 μg per eye))?
**A.** no sensations of sting, irritation, or pain

**Q.** What about the “effective dose via eye wipe” value (closed eyelids [3]; delivered via a 2.0 mg/mL solution in an eye wipe) of the same molecule?
**A.** ~32 μg/eye

**Q.** What about the “quality of cooling sensation” value (closed eyelids [3]; saline, eye wipe) of the same molecule?
**A.** Robust and refreshing cooling

**Q.** What about the “symptomatic relief on as-needed use” value (closed eyelids [5]; dry eyes syndrome, as needed for three months) of the same molecule?
**A.** expressed satisfaction at the relief of eye discomfort

**Q.** And the “duration of cooling and soothing sensations” value (closed eyelids [5]; [6])?
**A.** at least 1 hour

**Q.** And the “onset of cooling and soothing sensations” value (closed eyelids [5]; [6])?
**A.** Within two minutes

**Q.** And the sensations reported (closed eyelids [5]; [6])?
**A.** sensation of “wetness”, and a feeling of soothing and comfort

**Q.** And the “duration of cooling and soothing sensations” value (closed eyelids [5]; [7])?
**A.** at least two hours

**Q.** And the “effect on visual acuity” value (closed eyelids [5]; [7])?
**A.** increase in visual acuity

**Q.** And the “onset of cooling and soothing sensations” value (closed eyelids [5]; [7])?
**A.** Within two minutes

**Q.** With `COC(=O)[C@@H](C)NC(=O)[C@@H]1C[C@H](C)CC[C@H]1C(C)C` [Compound 9] as the molecule, how does the sensations accompanying cooling (closed eyelids [4]) read?
**A.** without any sensations of wetness or increased visual acuity

**Q.** What about the “solubility in 1 or 2% ethanol-water solution” value [2] of the same molecule?
**A.** 1000 µg/mL (≈ 3.71 mM)

**Q.** And the “cooling potency relative to CPS-030” value (closed eyelids [3])?
**A.** more potent cooling activity than CPS-030

**Q.** Which duration of cooling (closed eyelids [3]; 10 mg/mL, eye wipe) does the source give for `CC(C)[C@@H]1CC[C@@H](C)C[C@H]1C(=O)OCCOCCO` [Compound 2] here?
**A.** less than 30 minutes

**Q.** What about the cooling intensity (closed eyelids [3]; 10 mg/mL, eye wipe, scale 0-3) of the same molecule?
**A.** < 2 coolness units

From patent publication US20120128754A1, “TREATMENT OF EYE DISCOMFORT BY TOPICAL ADMINISTRATION OF A COOLING AGENT TO THE EXTERNAL SURFACE OF THE EYELID” (priority 2009, published 2012)
